Source: patent US9839618B2, “Compositions and methods relating to proliferative diseases” (The Penn State Research Foundation, priority 2010, dated 2017)

Key:
[1] = Toxicity assessment of leelamine; assay type: in vivo, Swiss Webster mice
Procedure: To assess toxicity, Swiss Webster (n=5) mice are intraperitoneally injected with 5 or 10 mg/kg body weight leelamine or with vehicle control (DMSO) every day for 4 weeks. Animals are weighed daily to ascertain the toxicity leading to changes in body weight. Blood is collected by cardiac puncture at the end of treatment and analyzed for the levels of ALP (alkaline phosphatase), ALT (alanine aminotransferase), AST (aspartate aminotransferase), CK (creatine kinase), CREA (creatinine) and GLU (glucose), parameters indicative of organ related toxicity, following systemic administration of 10-mg/Kg-body weight of leelamine, shown in FIG. 11. […] Vital organs including liver, spleen, kidney, intestine, lung and heart from control and experimental animals are collected at the end of the test period, formalin fixed, paraffin-embedded, hematoxylin/eosin stained and analyzed microscopically for changes in cellular morphology or tissue architecture as described in Sharma, A. et al., Clin Cancer Res, 2009, 15:1674-85; and Madhunapantula, S. V. et al., Mol Cancer Ther, 2008, 7:1297-308.

[2] = test system: non-melanoma cancer cell lines; experiment: MTS assay, leelamine on non-melanoma cancer cell lines; assay type: cell-based; conditions: breast, lung, prostate, connective tissue, pancreas, colon lines
Procedure: The efficacy of leelamine to kill other cancer types is measured and the IC50 for cell lines derived from carcinomas of breast, lung, prostate, connective tissue, pancreas and colon determined. The MTS assay as described in Sharma, A. et al., Clin Cancer Res, 2009, 15:1674-85; and Madhunapantula, S. V. et al., Mol Cancer Ther, 2008, 7:1297-308 is used to establish the IC50 at 24, 48 and 72 hours of leelamine treatment for normal human epidermal melanocytes (FOM103), normal skin fibroblast cells (FF2441), normal skin keratinocytes (HFK) and compared to melanocytic lesion cells from the radial-, vertical- and metastatic melanoma stages. 5×10^3 cells per well in 100 μL of media are plated and grown in a 96-well plate for 48 to 72 hours and treated with either DMSO vehicle control or 0.62 to 40 μmol/L of leelamine for 24, 48 or 72 hours. IC50 values for each compound in μmol/L for respective cell lines are measured from three independent experiments using GraphPad Prism version 4.01 (GraphPad Software, La Jolla, Calif.). Leelamine is found to be not toxic to normal cells and effective to kill melanoma cells as well as non-melanoma cancer cells as shown in Table 1 in FIG. 20. Leelamine is 3- to 4-fold more specific at killing metastatic melanoma than normal cells, supporting cancer therapeutic utility at concentrations<2 μmol/L.

[3] = test system: normal cells (melanocytes FOM103, fibroblasts FF2441, keratinocytes HFK); experiment: MTS assay, leelamine on normal cells; assay type: cell-based; conditions: Homo sapiens, 72 hour exposure, read-out: concentration to kill 50% of normal cells
Procedure: The efficacy of leelamine to kill other cancer types is measured and the IC50 for cell lines derived from carcinomas of breast, lung, prostate, connective tissue, pancreas and colon determined. The MTS assay as described in Sharma, A. et al., Clin Cancer Res, 2009, 15:1674-85; and Madhunapantula, S. V. et al., Mol Cancer Ther, 2008, 7:1297-308 is used to establish the IC50 at 24, 48 and 72 hours of leelamine treatment for normal human epidermal melanocytes (FOM103), normal skin fibroblast cells (FF2441), normal skin keratinocytes (HFK) and compared to melanocytic lesion cells from the radial-, vertical- and metastatic melanoma stages. […] IC50 values for each compound in μmol/L for respective cell lines are measured from three independent experiments using GraphPad Prism version 4.01 (GraphPad Software, La Jolla, Calif.). […]
5×10^3 cells per well in 100 μL of media are plated and grown in a 96-well plate for 48 to 72 hours and treated with either DMSO vehicle control or 0.62 to 40 μmol/L of leelamine for 24, 48 or 72 hours. IC50 values for each compound in μmol/L for respective cell lines are measured from three independent experiments using GraphPad Prism version 4.01 (GraphPad Software, La Jolla, Calif.).

[4] = test system: 1205 Lu human melanoma cell tumors; experiment: Melanoma xenograft tumor development, 1205 Lu; assay type: in vivo, mice; conditions: intraperitoneally 2.5-7.5 mg/kg daily for 3-4 weeks, compared to DMSO vehicle
Procedure: (§1) The efficacy of leelamine for inhibiting melanoma tumor development is evaluated on preexisting tumors formed following subcutaneous injection of cancer cells into nude mice. Tumor kinetics are measured by subcutaneous injection of 1.0×10^6 UACC 903 or 1205 Lu cells in 0.2 mL of DMEM supplemented with 10% FBS subcutaneously injected above both left and right rib cages of 3- to 4-wk-old female athymic nude-Foxn1^nu mice (Harlan Laboratories, Indianapolis, Ind.). Six days later, when a fully vascularized tumor (50-75 mm^3) has formed, mice are randomly divided into DMSO vehicle control and experimental groups (5 mice/group; 2 tumors/mouse) and treated intraperitoneally with 2.5-7.5 mg/kg body weight leelamine daily for 3-4 weeks. Body weight (grams) and dimensions of the developing tumors (mm^3) are measured at the time of drug treatment as described in Sharma, A. et al., Clin Cancer Res, 2009, 15:1674-85; and Madhunapantula, S. V. et al., Mol Cancer Ther, 2008, 7:1297-308.
Tumor kinetics are measured by subcutaneous injection of 1.0×10^6 UACC 903 or 1205 Lu cells in 0.2 mL of DMEM supplemented with 10% FBS subcutaneously injected above both left and right rib cages of 3- to 4-wk-old female athymic nude-Foxn1^nu mice (Harlan Laboratories, Indianapolis, Ind.). […] Body weight (grams) and dimensions of the developing tumors (mm^3) are measured at the time of drug treatment.

[5] = test system: UACC 903 human melanoma cell tumors; experiment: Melanoma xenograft tumor development, UACC 903; assay type: in vivo, mice
Procedure: as §1
In this example, leelamine (40, 60, or 80 mg/kg body weight) is administered orally to 4-6 weeks old nude mice bearing UACC903 melanoma cell tumors (50-100 mm^3). Sizes of developing tumors are measured. […] Values±S.E.M. (n=5)
Tumor kinetics are measured by subcutaneous injection of 1.0×10^6 UACC 903 or 1205 Lu cells in 0.2 mL of DMEM supplemented with 10% FBS subcutaneously injected above both left and right rib cages of 3- to 4-wk-old female athymic nude-Foxn1^nu mice (Harlan Laboratories, Indianapolis, Ind.). Six days later, when a fully vascularized tumor (50-75 mm^3) has formed, mice are randomly divided into control and experimental groups (5 mice/group; 2 tumors/mouse) and treated with 30-mg/kg body weight of empty liposome vehicle, abietic acid liposomes or Nanolipolee-007 intravenously each day for 3-4 weeks. Body weight (grams) and dimensions of the developing tumors (mm^3) are measured at the time of drug treatment.

[6] = i.p. 10 mg/kg daily for 4 weeks

CC(C)c1ccc2c(c1)CCC1[C@](C)(CN)CCC[C@]21C (stereo partly drawn) [Leelamine, [(1R,4aS)-1,4a-dimethyl-7-(propan-2-yl)-1,2,3,4,4a,9,10,10a-octahydrophenanthren-1-yl]methanamine]
blood ALP, ALT, AST, CK, CREA, GLU [1, 6]: No significant differences
histology of liver, spleen, kidney, intestine, lung, heart [1, 6]: did not significantly alter cell morphology or overall structure
body weights ([1]; i.p. 5 or 10 mg/kg every day for 4 weeks): no significant differences
IC50 [2]: 1 to 10 µM
IC50 [3]: 5 to 8 µM
reduction of tumor volume, 1205 Lu [4]: 57%
body weights of tumor bearing mice ([5]; UACC 903 and 1205 Lu xenograft nude mice, i.p. 2.5-7.5 mg/kg daily): no significant differences
reduction of tumor volume, UACC 903 ([5]; intraperitoneally 2.5-7.5 mg/kg daily for 3-4 weeks, compared to DMSO vehicle): 61%
reduction of tumor growth development, oral ([5]; orally 40, 60 or 80 mg/kg, compared to DMSO control): ~45%
